In patent publication US11970497B2, “Tricyclic AKR1C3 dependent KARS inhibitors” (Novartis AG, priority 2019, dated 2024):

Assays:
[1] = test system: H460 (NRF2 pathway mutant cell line with high AKR1C3 expression); test: In vitro cell proliferation assay (CellTiter-Glo), H460; format: cell-based; conditions: Homo sapiens, NCI-H460, 72 h; H460 cells, 3 days, CellTiter-Glo, top concentration 10 μM; read-out: H460 Qualified absolute AC50
How it was run: (§1)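 Cells seeded day 1 (H460 800/well, Hara 2000/well) in RPMI-1640 with 10% FBS; compounds added day 2 as 8-point 1:5 dilutions from 10 μM top. After 3 days at 37 °C, viability read by CellTiter-Glo luminescence, normalized to DMSO and MG132 (30 μM) controls to derive percentage activity and AC50.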

[2] = test system: NCI-H596; test: Expanded lung cancer cell line proliferation assay; format: cell-based; conditions: Homo sapiens; NCI-H596, 72 h, average of PrestoBlue and Cell Titer Glo; AKR1C3 265.6 TPM; read-out: Absolute Qualified AC50
How it was run: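 Seed 1000–2000 cells/well in RPMI-1640 + 10% FBS; overnight 37 °C; Day 0 plate read for fold-growth tracking; add compound (8-pt, 1:3.16, top 1 μM, triplicate); incubate 72 h; read PrestoBlue then CellTiter-Glo; NC1 normalization gives AC50.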

[3] = test system: Hara (NRF2 pathway wild type cell line with low AKR1C3 expression); test: In vitro cell proliferation assay (CellTiter-Glo), Hara; format: cell-based; conditions: 72 h; Hara cells, 3 days, CellTiter-Glo, top concentration 10 μM; read-out: HARA Qualified absolute AC50
How it was run: as §1

[4] = test system: NCI-H1944 human lung cancer xenograft; test: In vivo efficacy in NCI-H1944 xenograft; design: species or system mice
Procedure: Compound 40 Dose Dependent In Vivo Efficacy in High AKR1C3 Expressing Human Lung Cancer Xenograft NCI-H1944
Anti-cancer efficacy of Compound 40 was assessed in the NCI-H1944 human lung cancer xenograft model in mice that expresses high levels of AKR1C3. NCI-H1944 tumors were established in nude female mice by injection of a tumor cells subcutaneously. When tumors reached approximately 200 mm^3, mice were randomized according to tumor volume into treatment groups (n=8 per group) on Day 16.

Structure (SMILES) | AC50 [1] [nM] | AC50 [2] [nM] | AC50 [3] [nM] | ΔT/ΔC ([4]; 75 mg/kg po, qd, Day 44) [%] | Tumor response ([4]; 75 mg/kg qd po) | Regression ([4]; 150 mg/kg po, qd, Day 44) [%] | Regression ([4]; 300 mg/kg po, qd, Day 44) [%] | Tumor response ([4]; all dose levels) | Tumor response ([4]; dose levels above 75 mg/kg qd, po)
CN1c2ccc(F)cc2C(=O)CC12CCN(C(=O)NCc1ccc(F)c(NCCO)c1)CC2 [Example 36, 6′-fluoro-N-(4-fluoro-3-((2-hydroxyethyl)amino)benzyl)-1′-methyl-4′-oxo-3′,4′-dihydro-1′H-spiro[piperidine-4,2′-quinoline]-1-carboxamide] | 78 | 754 | 1560 |  |  |  |  |  | 
O=C1CC2(CCN(C(=O)NCc3ccc(F)cc3)CC2)Nc2ccc(F)cc21 [Example 40] | 83 | 334 | 1790 | 4.9 | Tumor stasis | 98.5 | 100 | efficacy benefit | deep tumor regression
